One assay concerns Escherichia coli. The experiment in a line: antibacterial activity was reported as zones of inhibition in the disk diffusion assay using Escherichia coli. Type of assay: functional. A general note: In agar diffusion tests the substance spreads into inoculated agar from a disc or well.
The next assay concerns Staphylococcus aureus. Put plainly: antibacterial activity was reported as zones of inhibition in the disk diffusion assay using staphylococcus aureus. In kind it is functional.
For assay [1], the species on record is Mus musculus. The experiment in a line: The compound was tested for urinary recovery was assayed for its content of free cycloserine by employing the bioassay in mouse. In kind it is functional, Urine.
Assay [2] is filed under the species Mus musculus. Put plainly: The compound was tested for urinary recovery was assayed for its content for total cycloserine content employing the chemical assay in mouse. In kind it is functional, Urine.

With `CC1(C)CC(O)=C/C(=N/C2CONC2=O)C1` (stereo not given), the Diameter in the assay on Escherichia coli and in the assay on Staphylococcus aureus was under 6 mm throughout. In addition, the “Urinary recovery of free cycloserine” value in the assay filed under Mus musculus [1] is under 1%. The “Urinary recovery of total cycloserine” value in the assay listed under Mus musculus [2] was 55%.

`CCOC(=O)NC1CONC1=O` (stereo not given): the Diameter in the assay on Escherichia coli and with Staphylococcus aureus was under 6 mm throughout. For the same compound, the “Urinary recovery of free cycloserine” value in the assay listed under Mus musculus [1] is reported as under 1%. Besides, the “Urinary recovery of total cycloserine” value in the assay filed under Mus musculus [2] was determined as 33%.

As to `C/C(O)=C\C(C)=N\C1CONC1=O` (stereo not given), the Diameter came to 39 mm with Escherichia coli and 36 mm with Staphylococcus aureus. Also, in the assay filed under Mus musculus [1], the “Urinary recovery of free cycloserine” value is listed as 93%. For the same compound, the “Urinary recovery of total cycloserine” value in the assay listed under Mus musculus [2] came to 64%.

As for `O=C(NC1CONC1=O)C1CCCCC1` (stereo not given), the Diameter in the assay on Escherichia coli and with Staphylococcus aureus was under 6 mm throughout. Also, the “Urinary recovery of free cycloserine” value in the assay listed under Mus musculus [1] was 1%. Also, in the assay listed under Mus musculus [2], the “Urinary recovery of total cycloserine” value worked out at 53%.

Regarding `O=C(NC(=O)C(Cl)(Cl)Cl)NC1CONC1=O` (stereo not given), the Diameter in the assay with Escherichia coli was 14 mm; in the assay with Staphylococcus aureus, under 6 mm. For the same compound, the “Urinary recovery of free cycloserine” value in the assay listed under Mus musculus [1] was under 1%. Besides, the “Urinary recovery of total cycloserine” value in the assay listed under Mus musculus [2] came to 55%.

As to `N[C@@H]1CONC1=O` [CYCLOSERINE], the Diameter in the assay with Escherichia coli amounted to 39 mm; in the assay on Staphylococcus aureus, 36 mm. Also, the “Urinary recovery of free cycloserine” value in the assay listed under Mus musculus [1] was 64%. The “Urinary recovery of total cycloserine” value in the assay filed under Mus musculus [2] is reported as 45%.

With `CNC(=O)NC1CONC1=O` (stereo not given), the Diameter with Escherichia coli came to 22 mm; in the assay on Staphylococcus aureus, 25 mm. For the same compound, the “Urinary recovery of free cycloserine” value in the assay filed under Mus musculus [1] is recorded as under 1%. Besides, the “Urinary recovery of total cycloserine” value in the assay filed under Mus musculus [2] was 16%.

In the case of `O=C(CCl)NC1CON(C(=O)CCl)C1=O` (stereo not given), the Diameter in the assay with Escherichia coli and in the assay on Staphylococcus aureus was under 6 mm each time. Moreover, the “Urinary recovery of free cycloserine” value in the assay filed under Mus musculus [1] was determined as 1.1%. In the assay listed under Mus musculus [2], the “Urinary recovery of total cycloserine” value came to 43%.

With `CNC(=O)NC1CON(C(=O)NC)C1=O` (stereo not given), the Diameter with Escherichia coli and in the assay with Staphylococcus aureus was under 6 mm in each case. Besides, the “Urinary recovery of free cycloserine” value in the assay listed under Mus musculus [1] is given as under 1%. For the same compound, the “Urinary recovery of total cycloserine” value in the assay listed under Mus musculus [2] is on record as under 1%.

As for `O=C(CCl)NC1CONC1=O` (stereo not given), the Diameter with Escherichia coli and in the assay on Staphylococcus aureus was under 6 mm throughout. The “Urinary recovery of free cycloserine” value in the assay filed under Mus musculus [1] turned out to be 1%. Besides, the “Urinary recovery of total cycloserine” value in the assay filed under Mus musculus [2] stood at 70%.
